“Also recorded” adds a separate entry of the source. Numbered stars: 1 amine (or outer) side, 2 acyl side, 3 side chain; on linkers, the order of the positions; unused ones are H or OH. Bridge positions count the residues as written; N and C are the ends. Square brackets hold non-standard residues; d marks the D form. Ends that are not written are not given here. Peptide text beside a SMILES is read from it. I, II: the chains in the order shown. Actinocin(9to1) = Cc1c2oc3c(C)ccc(C(=O)[*:1])c3nc-2c(C(=O)[*:2])c(N)c1=O; NMeV = CN[C@H](C(=O)O)C(C)C; Sar = CNCC(=O)O
Tests used:
PGs of B. mori = assay: Effect of inhibitors on induced ecdysone biosynthesis in cultured PGs; format: cell-based, Bombyx mori; conditions: 15 min pre-treatment, 3 hours; for effect of inhibitor on PDF-induced ecdysone biosynthesis: n = 10
Description: (§1) Dissected PGs were rinsed with Grace's insect culture medium (Gibco) and pre-cultured individually in 100 µl medium in 96-well plates (BD Falcon) at 25°C for 30 min. To evaluate the effect of extracellular Ca^2+ on ecdysone biosynthesis, lepidopteran saline and lepidopteran saline using NaCl as a replacement for CaCl2 were used. For the pharmacological analysis, the PG was pre-treated with the inhibitor for 15 min during the pre-culture period. Following this treatment, the PG was cultured in the desired conditions for the desired period (Ecdysone assay: 3 hours; cAMP assay: 30 min; and Protein phosphorylation assay: 15 min). Actinomycin D, H-89 and cycloheximide (CHX) were purchased from Sigma; Rapamycin was purchased from Santa Cruz Biotechnology; and LY294002 was purchased from Merck. H-89 was dissolved in water. The other inhibitors were dissolved in DMSO. A 1% volume of the appropriate inhibitor was added to the culture medium.
Prior to ecdysteroids extraction, the 100 µl of cultured medium was diluted with equal volume of MilliQ water. After that, 400 µl of 1-butanol was added to the sample, vortexed for 3 min and centrifuged at 1,000×g for 10 min at 4°C. The 1-butanol phase was transferred to a new tube, and the solvent was evaporated using a centrifugal concentrator. The dried samples were re-dissolved in 50 µl of pure methanol for the following analysis. Quantification of ecdysteroids using LC-MS/MS was performed as previously described with some modifications. Ecdysteroids were separated by reverse-phase HPLC using a PEGASIL C8 column (3 µm, 2×100 mm, Senshu-pak, Senshu-kagaku) with gradient elution of acetonitrile (ACN)/water at a flow rate of 0.2 mL min^−1 (0–3 min (ACN = 10–75%), 3–20 min (75–85%), 20–25 min (100%)), on a Prominence UFLC system (Shimadzu). The separated ecdysteroids were quantified with the QTRAP5500 MS/MS system (AB SCIEX) using MRM mode. For the quantitative analysis, standard curves were generated with concentrations of 0.98–1000 ng/ml.
Because PDF stimulated the increase in intracellular cAMP levels in the PGs, the activation of PKA is likely involved in the PDF signaling pathway. One of the pathways downstream of active PKA is cAMP response element-binding protein (CREB)-mediated transcriptional regulation. First, we evaluated the effect of PDF on the transcript level of known ecdysone biosynthetic enzymes (Nvd, Nm-g, Spo, Phm, Dib and Sad) using Q-PCR. […] Therefore, de novo transcription was not required for PDF-mediated ecdysone biosynthesis for at least 3 hours. […]
(§2) Figure 4 Signaling pathways involved in PDF-induced ecdysone biosynthesis. […] The transcript levels of nvd, nm-g, spo, phm, dib and sad were quantified with Q-PCR. […] Statistically significant differences were evaluated by Student's t-test (***P<0.001, **P<0.01). […]

4E-BP = assay: p-4E-BP level in cultured PGs (Western blot); format: cell-based, Bombyx mori; conditions: PI3K inhibitor LY294002 50 µM; immunoblotting
Description: as §1, with “Actinomycin D, H-89 and cycloheximide (CHX) were purchased from Sigma; Rapamycin was purchased from Santa Cruz Biotechnology; and LY294002 was purchased from Merck. H-89 was dissolved in water. The other inhibitors were dissolved in DMSO. A 1% volume of the appropriate inhibitor was added to the culture medium.” left out
Dissected PGs were pre-cultured in Grace's culture medium for 30 min, then cultured with or without PDF or PTTH for 15 min. The cultured PGs were sonicated in 50 mM Tris-HCl (pH 6.8) with protease inhibitor cocktail (Complete, Roche) and phosphatase inhibitor cocktail (Wako), lysed in 1x SDS sample buffer excluding 2-mercaptoethanol (2ME) and bromophenol blue (BPB), and the protein concentration was measured using the BCA protein assay kit (Pierce). […]
as §2

PGs = conditions: cited from earlier work
Excerpt: In many cases, a single hormone has multiple functions regulating many physiological phenomena. Thus, both the regulation of receptor expression in the target tissue and the regulation of hormone release are important for the hormone to only affect the target tissue at the appropriate time. In the case of PTTH, the titer of the hormone in the hemolymph is clearly correlated with the ecdysteroid titer ... || In insects, neuropeptide hormones affect the target tissue via humoral and neuronal pathways. […] The increase in intracellular cAMP is thought to be regulated by Ca^2+ signaling in the PTTH signaling pathway, [37]. […] PDF sig ... || (+ 1 further places)

Molecule: C[C@@H]1C[C@@H]([C@H](O)CC2CC(=O)NC(=O)C2)C(=O)[C@@H](C)C1 [CHX, cycloheximide]
- effect of inhibitor on PDF-induced ecdysone biosynthesis (PGs of B. mori; translation inhibitor CHX 0.2 mM): clearly inhibited ecdysone biosynthesis

Molecule: O=S(=O)(NCCNC/C=C/c1ccc(Br)cc1)c1cccc2cnccc12 [H-89]
- effect of inhibitor on PDF-induced ecdysone biosynthesis (PGs of B. mori; PKA inhibitor H-89 0.1 mM): clearly inhibited ecdysone biosynthesis; also recorded: inhibited PDF-induced ecdysone biosynthesis

Molecule: O=c1cc(N2CCOCC2)oc2c(-c3ccccc3)cccc12 [LY294002, reference compound]
- effect of inhibitor on phosphorylation of 4E-BP induced by PDF and PTTH (4E-BP): clearly suppressed the ecdysone biosynthesis and phosphorylation of 4E-BP induced by PDF and PTTH
- effect of inhibitor on ecdysone biosynthesis induced by PDF and PTTH (PGs of B. mori; PI3K inhibitor LY294002 50 µM, n = 3 and 4): clearly suppressed the ecdysone biosynthesis

Molecule: Cc1c2oc3c(C)ccc(C(=O)N[C@@H]4C(=O)N[C@H](C(C)C)C(=O)N5CCC[C@H]5C(=O)N(C)CC(=O)N(C)[C@@H](C(C)C)C(=O)O[C@@H]4C)c3nc-2c(C(=O)N[C@@H]2C(=O)N[C@H](C(C)C)C(=O)N3CCC[C@H]3C(=O)N(C)CC(=O)N(C)[C@@H](C(C)C)C(=O)O[C@@H]2C)c(N)c1=O [actinomycin D] (I: T[dV]P[Sar][NMeV] / II: T[dV]P[Sar][NMeV]; ester I:1-I:C, II:1-II:C; linker I:N-II:N via Actinocin(9to1))
- effect of inhibitor on PDF-induced ecdysone biosynthesis (PGs of B. mori; transcription inhibitor ActD 10 µM): did not suppress PDF-induced ecdysone biosynthesis

Molecule: CCCC(=O)Nc1ncnc2c1ncn2[C@@H]1O[C@@H]2COP(=O)(O)O[C@H]2[C@H]1OC(=O)CCC [dbcAMP, dibutyryl cyclic AMP, reference compound]
- ecdysone biosynthesis in vitro (literature) (PGs; cell-permeable cAMP analog, in vitro, ref [27], [37]): can induce ecdysone biosynthesis in vitro
- effect of a transcription inhibitor on PTTH- and dbcAMP-induced ecdysone biosynthesis (literature) (PGs; ref [39]): ecdysone biosynthesis was suppressed by a transcription inhibitor

Molecule: diapause hormone: neuronal pathway-mediated tropic hormone (TDMKDESDRGAHSERGALWFGPRL; ends and bridges not checked; UniProt P09971 24-47, looked up) [reference compound]
- EC50 (PGs; neuronal pathway-mediated tropic hormone, ref [32], read-out: EC50 of tropic hormone (literature)): 270 nM
